# Measurements from US12281102B2, “Inhibitors of APOL1 and methods of using same” (Vertex Pharmaceuticals Incorporated, priority 2020, dated 2025).
# Read-outs that look alike come from different tables or passages of the source.
# Biological target: T1, G1 APOL1 (Homo sapiens, UniProt O14791, I384M/S342G)
# T1 construct: expressed in transfected cells
# T1 sequence (O14791 28-398 S342G/I384M): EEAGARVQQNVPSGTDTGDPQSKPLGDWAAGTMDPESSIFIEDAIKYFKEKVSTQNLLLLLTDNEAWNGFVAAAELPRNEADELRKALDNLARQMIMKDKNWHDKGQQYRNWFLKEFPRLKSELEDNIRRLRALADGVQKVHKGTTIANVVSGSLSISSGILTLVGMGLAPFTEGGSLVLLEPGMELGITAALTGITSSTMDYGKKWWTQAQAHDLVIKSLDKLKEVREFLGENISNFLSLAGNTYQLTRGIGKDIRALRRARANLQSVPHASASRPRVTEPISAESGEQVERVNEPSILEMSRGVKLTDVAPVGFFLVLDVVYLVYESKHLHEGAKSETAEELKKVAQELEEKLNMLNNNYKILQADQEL
# Test: Acute APOL1 Thallium Assay with inducible stable clones of HEK 293 cells
# Type: cell-based
# Conditions: HEK 293 T-Rex inducible stable clone expressing G1 APOL1
# Summary of the method: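 A tetracycline-inducible HEK293 T-Rex clone (G1 DC3.25) expressing G1 APOL1 was plated at 26,000 cells/well, with tetracycline added at plating to induce expression. Cells were loaded with an AM-ester thallium-sensitive dye and stimulated with Tl+. Pore activity was read as the FLIPR Tetra fluorescence increase from Tl+ influx.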
# [1] = read-out: Thallium Assay (IC50)
IC50 [1],SMILES,IC50 (Thallium Assay (IC50))
250 to 1000 nM,"CC(C)(O)CC(=O)NC1CC(Cc2c(-c3ccc(F)cc3)[nH]c3c(F)cc(F)cc23)C1 (stereo not drawn) [Compound 160, N-[3-[[5,7-difluoro-2-(4-fluorophenyl)-1H-indol-3-yl]methyl]cyclobutyl]-3-hydroxy-3-methylbutanamide]",–
250 to 1000 nM,C[C@H](O)C(=O)NC1CC(Cc2c(-c3ccc(F)cc3)[nH]c3c(F)cc(F)cc23)C1 (stereo partly drawn) [Compound 161],–
250 to 1000 nM,Cc1nc[nH]c1C(=O)NC1CC(Cc2c(-c3ccc(F)cc3)[nH]c3c(F)cc(F)cc23)C1 (stereo not drawn) [Compound 162],–
> 1000 nM,O=C1NCCC1C(=O)NC1CC(Cc2c(-c3ccc(F)cc3)[nH]c3c(F)cc(F)cc23)C1 (stereo not drawn) [Compound 163],–
> 1000 nM,O=C1CC(CC(=O)NC2CC(Cc3c(-c4ccc(F)cc4)[nH]c4c(F)cc(F)cc34)C2)C(=O)N1 (stereo not drawn) [Compound 164],–
> 1000 nM,NC(=O)CC(=O)NC1CC(Cc2c(-c3ccc(F)cc3)[nH]c3c(F)cc(F)cc23)C1 (stereo not drawn) [Compound 165],–
> 1000 nM,O=C(NC1CC(Cc2c(-c3ccc(F)cc3)[nH]c3c(F)cc(F)cc23)C1)c1ccn[nH]1 (stereo not drawn) [Compound 166],–
> 1000 nM,O=C1CC(C(=O)NC2CC(Cc3c(-c4ccc(F)cc4)[nH]c4c(F)cc(F)cc34)C2)C(=O)N1 (stereo not drawn) [Compound 167],–
> 1000 nM,O=C(CC1NC(=O)NC1=O)NC1CC(Cc2c(-c3ccc(F)cc3)[nH]c3c(F)cc(F)cc23)C1 (stereo not drawn) [Compound 168],–
> 1000 nM,Cc1cc[nH]c1C(=O)NC1CC(Cc2c(-c3ccc(F)cc3)[nH]c3c(F)cc(F)cc23)C1 (stereo not drawn) [Compound 171],–
> 1000 nM,Cc1ccc(C(=O)NC2CC(Cc3c(-c4ccc(F)cc4)[nH]c4c(F)cc(F)cc34)C2)[nH]1 (stereo not drawn) [Compound 172],–
250 to 1000 nM,"O[C@H]1C[C@@H](c2c(-c3ccc(F)cc3)[nH]c3c(F)cc(F)cc32)C1 [Compound 175, (1s,3s)-3-(5,7-difluoro-2-(4-fluorophenyl)-1H-indol-3-yl)cyclobutan-1-ol]",–
> 1000 nM,NCC1CC(c2c(-c3ccc(C4CC4)cc3)[nH]c3ccc(F)cc23)C1 (stereo not drawn) [Compound 177],–
250 to 1000 nM,NCC1CC(c2c(-c3ccc(F)cc3)[nH]c3c(F)cc(C(F)(F)F)cc23)C1 (stereo not drawn) [Compound 178],–
< 250 nM,Cc1cc(-c2[nH]c3c(F)cc(F)cc3c2C2CC(CN)C2)ccc1F (stereo not drawn) [Compound 179],–
< 250 nM,"C[C@H](N)C(=O)NC[C@H]1C[C@H](c2c(-c3ccc(F)cc3)[nH]c3c(F)cc(F)cc32)C1 [Compound 189, (S)-2-amino-N-(((1r,3S)-3-(5,7-difluoro-2-(4-fluorophenyl)-1H-indol-3-yl)cyclobutyl)methyl)propanamide]",–
< 250 nM,NCC(=O)NC[C@H]1C[C@@H](c2c(-c3ccc(F)cc3)[nH]c3c(F)cc(F)cc32)C1 [Compound 190],–
< 250 nM,NCC(=O)NC[C@H]1C[C@H](c2c(-c3ccc(F)cc3)[nH]c3c(F)cc(F)cc32)C1 [Compound 191],–
< 250 nM,O=C(NC[C@H]1C[C@H](c2c(-c3ccc(F)cc3)[nH]c3c(F)cc(F)cc32)C1)C1CCO1 (stereo partly drawn) [Compound 192],–
< 250 nM,CC(C)(C)OC(=O)N[C@@H](CO)C(=O)NC[C@H]1C[C@H](c2c(-c3ccc(F)cc3)[nH]c3c(F)cc(F)cc32)C1 [Compound 193],–

IC50 [1],SMILES,IC50 (Thallium Assay (IC50))
< 250 nM,N[C@@H](CO)C(=O)NC[C@H]1C[C@H](c2c(-c3ccc(F)cc3)[nH]c3c(F)cc(F)cc32)C1 [Compound 194],–
< 250 nM,CC(=O)NC[C@H]1C[C@H](c2c(-c3ccc(F)cc3)[nH]c3c(F)cc(F)cc32)C1 [Compound 195],–
< 250 nM,N[C@H](C(=O)NC[C@H]1C[C@H](c2c(-c3ccc(F)cc3)[nH]c3c(F)cc(F)cc32)C1)C1CC1 [Compound 196],–
< 250 nM,CC[C@H](N)C(=O)NC[C@H]1C[C@H](c2c(-c3ccc(F)cc3)[nH]c3c(F)cc(F)cc32)C1 [Compound 197],–
< 250 nM,O=C(NC[C@H]1C[C@H](c2c(-c3ccc(F)cc3)[nH]c3c(F)cc(F)cc32)C1)[C@@H]1CCN1 [Compound 198],–
< 250 nM,O=C(NC[C@H]1C[C@H](c2c(-c3ccc(F)cc3)[nH]c3c(F)cc(F)cc32)C1)[C@@H]1CCCN1 [Compound 199],–
< 250 nM,O=C(NC[C@H]1C[C@H](c2c(-c3ccc(F)cc3)[nH]c3c(F)cc(F)cc32)C1)C(F)F [Compound 200],–
< 250 nM,N[C@H](CO)C(=O)NC[C@H]1C[C@H](c2c(-c3ccc(F)cc3)[nH]c3c(F)cc(F)cc32)C1 [Compound 201],–
< 250 nM,O=C(NC[C@H]1C[C@H](c2c(-c3ccc(F)cc3)[nH]c3c(F)cc(F)cc32)C1)C1COC1 [Compound 202],–
< 250 nM,O=C(CO)NC[C@H]1C[C@H](c2c(-c3ccc(F)cc3)[nH]c3c(F)cc(F)cc32)C1 [Compound 203],–
< 250 nM,CC(=O)N[C@H](C)C(=O)NC[C@H]1C[C@H](c2c(-c3ccc(F)cc3)[nH]c3c(F)cc(F)cc32)C1 [Compound 204],–
< 250 nM,O=C(NC[C@H]1C[C@H](c2c(-c3ccc(F)cc3)[nH]c3c(F)cc(F)cc32)C1)[C@@H]1C[C@@H](F)CN1 [Compound 205],–
250 to 1000 nM,O=C(CCO)NC[C@H]1C[C@@H](c2c(-c3ccc(F)cc3)[nH]c3c(F)cc(F)cc32)C1 [Compound 206],–
250 to 1000 nM,C[C@H](O)C(=O)NC[C@H]1C[C@H](c2c(-c3ccc(F)cc3)[nH]c3c(F)cc(F)cc32)C1 [Compound 207],–
250 to 1000 nM,CC(=O)N[C@@H](C)C(=O)NC[C@H]1C[C@H](c2c(-c3ccc(F)cc3)[nH]c3c(F)cc(F)cc32)C1 [Compound 208],–
250 to 1000 nM,COCCC(=O)NC[C@H]1C[C@@H](c2c(-c3ccc(F)cc3)[nH]c3c(F)cc(F)cc32)C1 [Compound 209],–
250 to 1000 nM,O=C(CO)NC[C@H]1C[C@@H](c2c(-c3ccc(F)cc3)[nH]c3c(F)cc(F)cc32)C1 [Compound 210],–
250 to 1000 nM,C[C@@H](O)C(=O)NC[C@H]1C[C@H](c2c(-c3ccc(F)cc3)[nH]c3c(F)cc(F)cc32)C1 [Compound 211],–
250 to 1000 nM,CC(C)(C)OC(=O)NCC(=O)NC[C@H]1C[C@@H](c2c(-c3ccc(F)cc3)[nH]c3c(F)cc(F)cc32)C1 [Compound 212],–
250 to 1000 nM,C[C@H](O)C(=O)NC[C@H]1C[C@@H](c2c(-c3ccc(F)cc3)[nH]c3c(F)cc(F)cc32)C1 [Compound 213],–

IC50 [1],SMILES,IC50 (Thallium Assay (IC50))
250 to 1000 nM,CC(C)(C)OC(=O)NCC(=O)NC[C@H]1C[C@H](c2c(-c3ccc(F)cc3)[nH]c3c(F)cc(F)cc32)C1 [Compound 215],–
–,CC(C)(C)OC(=O)N1CC[C@H]1C(=O)NC[C@H]1C[C@H](c2c(-c3ccc(F)cc3)[nH]c3c(F)cc(F)cc32)C1 [Compound 216],250 to 1000 nM
–,CC(C)(C)OC(=O)N1CCC[C@H]1C(=O)NC[C@H]1C[C@H](c2c(-c3ccc(F)cc3)[nH]c3c(F)cc(F)cc32)C1 [Compound 217],250 to 1000 nM
250 to 1000 nM,O=C1C[C@@H](C(=O)NC[C@H]2C[C@H](c3c(-c4ccc(F)cc4)[nH]c4c(F)cc(F)cc43)C2)N1 [Compound 218],–
250 to 1000 nM,O=C(NC[C@H]1C[C@@H](c2c(-c3ccc(F)cc3)[nH]c3c(F)cc(F)cc32)C1)C(F)F [Compound 219],–
250 to 1000 nM,O=C(NC[C@H]1C[C@@H](c2c(-c3ccc(F)cc3)[nH]c3c(F)cc(F)cc32)C1)C1CCO1 (stereo partly drawn) [Compound 220],–
250 to 1000 nM,O=C(NC[C@H]1C[C@H](c2c(-c3ccc(F)cc3)[nH]c3c(F)cc(F)cc32)C1)C1(O)COC1 [Compound 221],–
250 to 1000 nM,O=C(NC[C@H]1C[C@H](c2c(-c3ccc(F)cc3)[nH]c3c(F)cc(F)cc32)C1)[C@H]1NCC[C@@H]1O [Compound 222],–
250 to 1000 nM,O=C(NC[C@H]1C[C@H](c2c(-c3ccc(F)cc3)[nH]c3c(F)cc(F)cc32)C1)C1CC(F)(F)CN1 (stereo partly drawn) [Compound 223],–
250 to 1000 nM,CC(=O)N[C@@H](CO)C(=O)NC[C@H]1C[C@H](c2c(-c3ccc(F)cc3)[nH]c3c(F)cc(F)cc32)C1 [Compound 224],–
250 to 1000 nM,O=C(NC[C@H]1C[C@H](c2c(-c3ccc(F)cc3)[nH]c3c(F)cc(F)cc32)C1)[C@@H]1C[C@@H](O)CN1 [Compound 225],–
250 to 1000 nM,O=C(NC[C@H]1C[C@@H](c2c(-c3ccc(F)cc3)[nH]c3c(F)cc(F)cc32)C1)C1COC1 [Compound 226],–
> 1000 nM,C[C@H](NC(=O)OC(C)(C)C)C(=O)NC[C@H]1C[C@H](c2c(-c3ccc(F)cc3)[nH]c3c(F)cc(F)cc32)C1 [Compound 227],–
> 1000 nM,O=C(NC[C@H]1C[C@H](c2c(-c3ccc(F)cc3)[nH]c3c(F)cc(F)cc32)C1)[C@H]1NCC[C@H]1O [Compound 229],–
> 1000 nM,N#CCC(=O)NC[C@H]1C[C@@H](c2c(-c3ccc(F)cc3)[nH]c3c(F)cc(F)cc32)C1 [Compound 230],–
> 1000 nM,O=C(CC1CS(=O)(=O)C1)NC[C@H]1C[C@@H](c2c(-c3ccc(F)cc3)[nH]c3c(F)cc(F)cc32)C1 [Compound 231],–
> 1000 nM,NS(=O)(=O)CCC(=O)NC[C@H]1C[C@@H](c2c(-c3ccc(F)cc3)[nH]c3c(F)cc(F)cc32)C1 [Compound 232],–
> 1000 nM,NC(C(=O)NC[C@H]1C[C@H](c2c(-c3ccc(F)cc3)[nH]c3c(F)cc(F)cc32)C1)C(F)(F)F (stereo partly drawn) [Compound 233],–
> 1000 nM,O=C(NC[C@H]1C[C@@H](c2c(-c3ccc(F)cc3)[nH]c3c(F)cc(F)cc32)C1)C1(O)CC1 [Compound 234],–
> 1000 nM,O=C1CC[C@@H](C(=O)NC[C@H]2C[C@H](c3c(-c4ccc(F)cc4)[nH]c4c(F)cc(F)cc43)C2)N1 [Compound 235],–
